Measurements published in US12077503B2, “Substituted cyclic amides and their use as herbicides” (FMC CORPORATION, priority 2015, dated 2024).
Where two headings read alike, the source gives them in different places.

Experiments:
Format in all cases: in vivo
[1] = test system: pigweed (Amaranthus retroflexus); test: Test A preemergence; details: Amaranthus retroflexus, pre-emergence, 240 h, preemergence, 0 to 100 scale where 0 is no effect and 100 is complete control, read-out: Pigweed plant response rating; for pest or weed control at 125 g/ha: 125 g ai/ha, approx. 10 d; for pest or weed control at 500 g/ha: 500 g ai/ha
[2] = test system: barnyardgrass (Echinochloa crus-galli); test: Test A preemergence; details: Echinochloa crus-galli, pre-emergence, 240 h, preemergence, read-out: Barnyardgrass plant response rating; for pest or weed control at 125 g/ha: 125 g ai/ha, approx. 10 d; for pest or weed control at 500 g/ha: 500 g ai/ha
Summary of the method: (§1)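 Greenhouse, ~10 d after spray; visual injury vs untreated controls, 0 = no effect, 100 = complete control. Preemergence: directed soil spray over planted seeds. Postemergence: plants 2–10 cm, 1–2 leaf stage. Loam/sand blend. Compound in non-phytotoxic solvent with surfactant.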

Kochia (Kochia scoparia) [3] = test: Test A preemergence; details: Bassia scoparia, pre-emergence, 240 h, preemergence, 0 to 100 scale where 0 is no effect and 100 is complete control, read-out: Kochia plant response rating; for pest or weed control at 125 g/ha: 125 g ai/ha, approx. 10 d; for pest or weed control at 500 g/ha: 500 g ai/ha
Summary of the method: as §1

[4] = test system: giant foxtail (Setaria faberii); test: Test A preemergence; details: Setaria faberi, pre-emergence, 240 h, preemergence, 0 to 100 scale where 0 is no effect and 100 is complete control, read-out: Foxtail, Giant plant response rating; for pest or weed control at 125 g/ha: 125 g ai/ha, approx. 10 d; for pest or weed control at 500 g/ha: 500 g ai/ha
Summary of the method: as §1

[5] = test system: ryegrass, Italian (Italian ryegrass, Lolium multiflorum); test: Test A preemergence; details: Lolium multiflorum, pre-emergence, 240 h, preemergence, 0 to 100 scale where 0 is no effect and 100 is complete control, read-out: Ryegrass, Italian plant response rating; for pest or weed control at 125 g/ha: 125 g ai/ha, approx. 10 d; for pest or weed control at 500 g/ha: 500 g ai/ha
Summary of the method: as §1

[6] = test system: ragweed (common ragweed, Ambrosia elatior); test: Test A preemergence; details: Ambrosia artemisiifolia, pre-emergence, 240 h, preemergence, 0 to 100 scale where 0 is no effect and 100 is complete control, read-out: Ragweed plant response rating; for pest or weed control at 125 g/ha: 125 g ai/ha, approx. 10 d; for pest or weed control at 500 g/ha: 500 g ai/ha
Summary of the method: as §1

[7] = test system: blackgrass (Alopecurus myosuroides); test: Test A postemergence; details: Alopecurus myosuroides, post-emergence, 240 h, postemergence; for pest or weed control at 125 g/ha: 125 g ai/ha; for pest or weed control at 500 g/ha: 500 g ai/ha, 0 to 100 scale, 0 is no effect, 100 is complete control
Summary of the method: as §1

[8] = test system: Galium (catchweed bedstraw, Galium aparine); test: Test A postemergence; details: Galium, post-emergence, 240 h, postemergence; for pest or weed control at 125 g/ha: 125 g ai/ha; for pest or weed control at 500 g/ha: 500 g ai/ha, 0 to 100 scale, 0 is no effect, 100 is complete control
Summary of the method: as §1

[9] = test system: pigweed (Amaranthus retroflexus); test: Test A postemergence; details: Amaranthus retroflexus, post-emergence, 240 h, postemergence; for pest or weed control at 125 g/ha: 125 g ai/ha; for pest or weed control at 500 g/ha: 500 g ai/ha, 0 to 100 scale, 0 is no effect, 100 is complete control
Summary of the method: as §1

[10] = test system: barnyardgrass (Echinochloa crus-galli); test: Test A postemergence; details: Echinochloa crus-galli, post-emergence, 240 h, postemergence; for pest or weed control at 125 g/ha: 125 g ai/ha; for pest or weed control at 500 g/ha: 500 g ai/ha, 0 to 100 scale, 0 is no effect, 100 is complete control
Summary of the method: as §1

Kochia (Kochia scoparia) [11] = test: Test A postemergence; details: Bassia scoparia, post-emergence, 240 h, postemergence; for pest or weed control at 125 g/ha: 125 g ai/ha; for pest or weed control at 500 g/ha: 500 g ai/ha, 0 to 100 scale, 0 is no effect, 100 is complete control
Summary of the method: as §1

[12] = test system: wheat (Triticum aestivum); test: Test A postemergence; details: Triticum aestivum, post-emergence, 240 h, postemergence; for plant injury at 125 g/ha: 125 g ai/ha; for plant injury at 500 g/ha: 500 g ai/ha, 0 to 100 scale, 0 is no effect, 100 is complete control
Summary of the method: as §1

[13] = test system: giant foxtail (Setaria faberii); test: Test A postemergence; details: Setaria faberi, post-emergence, 240 h, postemergence; for pest or weed control at 125 g/ha: 125 g ai/ha; for pest or weed control at 500 g/ha: 500 g ai/ha, 0 to 100 scale, 0 is no effect, 100 is complete control
Summary of the method: as §1

[14] = test system: ryegrass, Italian (Italian ryegrass, Lolium multiflorum); test: Test A postemergence; details: Lolium multiflorum, post-emergence, 240 h, postemergence; for pest or weed control at 125 g/ha: 125 g ai/ha; for pest or weed control at 500 g/ha: 500 g ai/ha, 0 to 100 scale, 0 is no effect, 100 is complete control
Summary of the method: as §1

[15] = test system: ragweed (common ragweed, Ambrosia elatior); test: Test A postemergence; details: Ambrosia artemisiifolia, post-emergence, 240 h, postemergence; for pest or weed control at 125 g/ha: 125 g ai/ha; for pest or weed control at 500 g/ha: 500 g ai/ha, 0 to 100 scale, 0 is no effect, 100 is complete control
Summary of the method: as §1

corn (Zea mays) = test: Test A postemergence; details: Zea mays, post-emergence, 240 h, postemergence; for plant injury at 125 g/ha: 125 g ai/ha; for plant injury at 500 g/ha: 500 g ai/ha, 0 to 100 scale, 0 is no effect, 100 is complete control
Summary of the method: as §1

[16] = 0 to 100 scale where 0 is no effect and 100 is complete control
[17] = read-out: Blackgrass plant response rating
[18] = read-out: Galium plant response rating
[19] = read-out: Pigweed plant response rating
[20] = read-out: Barnyardgrass plant response rating
[21] = read-out: Kochia plant response rating
[22] = read-out: Wheat plant response rating
[23] = read-out: Foxtail, Giant plant response rating
[24] = read-out: Ryegrass, Italian plant response rating
[25] = read-out: Ragweed plant response rating
[26] = read-out: Corn plant response rating

CCc1cc([C@H]2CN(C)C(=O)[C@@H]2C(=O)Nc2cccc(F)c2F)cs1 [Compound 1157] gave a pest or weed control at 125 g/ha [1] of 30%, a pest or weed control at 500 g/ha [1] of 60% and a pest or weed control at 125 g/ha [2, 16] of 90%. For the same molecule, the pest or weed control at 500 g/ha [2, 16] was 90%, the pest or weed control at 125 g/ha (Kochia (Kochia scoparia) [3]) was 90% and the pest or weed control at 500 g/ha (Kochia (Kochia scoparia) [3]) was 90%. It also gave a pest or weed control at 125 g/ha [4] of 90%, a pest or weed control at 500 g/ha [4] of 100% and a pest or weed control at 125 g/ha [5] of 30%. The pest or weed control at 500 g/ha [5] was 90%, the pest or weed control at 125 g/ha [6] was 0% and the pest or weed control at 500 g/ha [6] was 80%. The pest or weed control at 125 g/ha ([7]; visual injury vs untreated controls after approx. 10 d, 0 = no effect, 100 = complete control, read-out: Blackgrass plant response rating (0 to 100 scale)) was 0%, the pest or weed control at 500 g/ha [7, 17] was 50% and the pest or weed control at 125 g/ha ([8]; visual injury vs untreated controls after approx. 10 d, 0 = no effect, 100 = complete control, read-out: Galium plant response rating (0 to 100 scale)) was 50%. It also gave a pest or weed control at 500 g/ha [8, 18] of 60%, a pest or weed control at 125 g/ha ([9]; visual injury vs untreated controls after approx. 10 d, 0 = no effect, 100 = complete control, read-out: Pigweed plant response rating (0 to 100 scale)) of 0% and a pest or weed control at 500 g/ha [9, 19] of 0%. The pest or weed control at 125 g/ha ([10]; visual injury vs untreated controls after approx. 10 d, 0 = no effect, 100 = complete control, read-out: Barnyardgrass plant response rating (0 to 100 scale)) was 90%, the pest or weed control at 500 g/ha [10, 20] was 90% and the pest or weed control at 125 g/ha (Kochia (Kochia scoparia) [11]; visual injury vs untreated controls after approx. 10 d, 0 = no effect, 100 = complete control, read-out: Kochia plant response rating (0 to 100 scale)) was 0%. It also gave a pest or weed control at 500 g/ha (Kochia (Kochia scoparia) [11]; [21]) of 50%, a plant injury at 125 g/ha ([12]; visual injury vs untreated controls after approx. 10 d, 0 = no effect, 100 = complete control, read-out: Wheat plant response rating (0 to 100 scale)) of 30% and a plant injury at 500 g/ha [12, 22] of 70%. The pest or weed control at 125 g/ha ([13]; visual injury vs untreated controls after approx. 10 d, 0 = no effect, 100 = complete control, read-out: Foxtail, Giant plant response rating (0 to 100 scale)) was 90%, the pest or weed control at 500 g/ha [13, 23] was 90% and the pest or weed control at 125 g/ha ([14]; visual injury vs untreated controls after approx. 10 d, 0 = no effect, 100 = complete control, read-out: Ryegrass, Italian plant response rating (0 to 100 scale)) was 0%. The pest or weed control at 500 g/ha [14, 24] was 40%, the pest or weed control at 125 g/ha ([15]; visual injury vs untreated controls after approx. 10 d, 0 = no effect, 100 = complete control, read-out: Ragweed plant response rating (0 to 100 scale)) was 0% and the pest or weed control at 500 g/ha [15, 25] was 50%. It also gave a plant injury at 125 g/ha (corn (Zea mays); visual injury vs untreated controls after approx. 10 d, 0 = no effect, 100 = complete control, read-out: Corn plant response rating (0 to 100 scale)) of 40% and a plant injury at 500 g/ha (corn (Zea mays); [26]) of 50%.
O=C1NC[C@H](c2csc(C(F)F)c2)[C@H]1C(=O)Nc1cccc(F)c1F [Compound 1119] was tested, and the pest or weed control at 125 g/ha [1] was 0%, the pest or weed control at 500 g/ha [1] was 30% and the pest or weed control at 125 g/ha [2, 16] was 90%. For the same molecule, the pest or weed control at 500 g/ha ([2]; visual injury rating about 10 d after treatment, 0 to 100 scale (0 no effect, 100 complete control)) was 90%, the pest or weed control at 125 g/ha (Kochia (Kochia scoparia) [3]) was 70% and the pest or weed control at 500 g/ha (Kochia (Kochia scoparia) [3]) was 80%. For the same molecule, the pest or weed control at 125 g/ha [4] was 50%, the pest or weed control at 500 g/ha [4] was 80% and the pest or weed control at 125 g/ha [5] was 20%. For the same molecule, the pest or weed control at 500 g/ha [5] was 30%, the pest or weed control at 125 g/ha [6] was 70% and the pest or weed control at 500 g/ha [6] was 70%. It also gave a pest or weed control at 125 g/ha ([7]; visual injury on 0 to 100 scale (0 no effect, 100 complete control), approx. 10 d, read-out: Blackgrass plant response rating) of 50%, a pest or weed control at 500 g/ha [7, 17] of 70% and a pest or weed control at 125 g/ha ([8]; visual injury on 0 to 100 scale (0 no effect, 100 complete control), approx. 10 d, read-out: Galium plant response rating) of 40%. For the same molecule, the pest or weed control at 500 g/ha [8, 18] was 50%, the pest or weed control at 125 g/ha ([9]; visual injury on 0 to 100 scale (0 no effect, 100 complete control), approx. 10 d, read-out: Pigweed plant response rating) was 0% and the pest or weed control at 500 g/ha [9, 19] was 20%. It also gave a pest or weed control at 125 g/ha ([10]; visual injury on 0 to 100 scale (0 no effect, 100 complete control), approx. 10 d, read-out: Barnyardgrass plant response rating) of 80%, a pest or weed control at 500 g/ha [10, 20] of 90% and a pest or weed control at 125 g/ha (Kochia (Kochia scoparia) [11]; visual injury on 0 to 100 scale (0 no effect, 100 complete control), approx. 10 d, read-out: Kochia plant response rating) of 40%. For the same molecule, the pest or weed control at 500 g/ha (Kochia (Kochia scoparia) [11]; [21]) was 60%, the plant injury at 125 g/ha ([12]; visual injury on 0 to 100 scale (0 no effect, 100 complete control), approx. 10 d, read-out: Wheat plant response rating) was 20% and the plant injury at 500 g/ha [12, 22] was 50%. For the same molecule, the pest or weed control at 125 g/ha ([13]; visual injury on 0 to 100 scale (0 no effect, 100 complete control), approx. 10 d, read-out: Foxtail, Giant plant response rating) was 30%, the pest or weed control at 500 g/ha [13, 23] was 70% and the pest or weed control at 125 g/ha ([14]; visual injury on 0 to 100 scale (0 no effect, 100 complete control), approx. 10 d, read-out: Ryegrass, Italian plant response rating) was 30%. It also gave a pest or weed control at 500 g/ha [14, 24] of 30%, a pest or weed control at 125 g/ha ([15]; visual injury on 0 to 100 scale (0 no effect, 100 complete control), approx. 10 d, read-out: Ragweed plant response rating) of 20% and a pest or weed control at 500 g/ha [15, 25] of 60%. It also gave a plant injury at 125 g/ha (corn (Zea mays); visual injury on 0 to 100 scale (0 no effect, 100 complete control), approx. 10 d, read-out: Corn plant response rating) of 20% and a plant injury at 500 g/ha (corn (Zea mays); [26]) of 30%.
